From patent US4619925A, “3-Propenyl cephalosporin derivatives” (priority 1985, dated 1986)

Assays:
[1] = system: Gram-positive bacteria, Gram-negative bacteria and fastidious bacteria; experiment: Antibacterial activity (summary statement); type: cell-based
[2] = system: fastidious bacteria; experiment: In vitro antibacterial activity against fastidious bacteria (overall); type: cell-based
Excerpt: Table 5 contains comparative data for in vitro antibacterial activity against fastidious bacteria.

C/C=C\C1=C(C(=O)O)N2C(=O)C(NC(=O)[C@H](N)c3cccc(O)c3)[C@H]2SC1 (stereo partly shown) [BMY-28272, 7-[(D)-2-amino-2-(3-hydroxyphenyl)acetamido]-3-[(Z)-1-propenyl]-3-cephem-4-carboxylic acid]
activity against Gram-positive bacteria [1]: strong activity against Gram-positive bacteria
spectrum of activity against Gram-negative and fastidious bacteria relative to cephalexin and cefaclor [1]: improved spectrum of activity against Gram-negative bacteria and fastidious bacteria relative to cephalexin and cefaclor
activity relative to BMY-28100 [2]: almost comparable or better than BMY-28100
activity relative to cefaclor or cephalexin [2]: much better than cefaclor or cephalexin
